Tests used:
Format in all cases: in vivo
[1] = test system: Setaria faberi (SETFA); assay: Pre-emergence herbicidal glasshouse test; settings: 250 g/ha, sprayed after one day cultivation, evaluated after 13 days
In short: (§1)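 Spray: acetone/water 50:50 + 0.5% Tween 20, 250 g/ha unless stated. Timing: day 1 pre-em, day 8 post-em. Conditions 24/16° C, 14 h light, 65% RH, watered twice daily. Read-out: % damage at 13 d, scored 1–5 (5=81-100%, 1=0-20%).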

[2] = test system: Amaranthus pa/meri (AMAPA); assay: Pre-emergence herbicidal glasshouse test; settings: 250 g/ha, sprayed after one day cultivation, evaluated after 13 days
In short: as §1

[3] = test system: Ipomoea hederacea (IPOHE); assay: Pre-emergence herbicidal glasshouse test; settings: 250 g/ha, sprayed after one day cultivation, evaluated after 13 days
In short: as §1

[4] = test system: Amaranthus retoflexus (AMARE); assay: Pre-emergence herbicidal glasshouse test; settings: 250 g/ha, sprayed after one day cultivation, evaluated after 13 days
In short: as §1

[5] = test system: Echinochloa crus-gali (ECHCG); assay: Pre-emergence herbicidal glasshouse test; settings: 250 g/ha, sprayed after one day cultivation, evaluated after 13 days
In short: as §1

[6] = test system: Setaria faberi (SETFA); assay: Post-emergence herbicidal glasshouse test; settings: 250 g/ha, sprayed after 8 days cultivation, evaluated after 13 days
In short: as §1

[7] = test system: Amaranthus pa/meri (AMAPA); assay: Post-emergence herbicidal glasshouse test; settings: 250 g/ha, sprayed after 8 days cultivation, evaluated after 13 days
In short: as §1

[8] = test system: Ipomoea hederacea (IPOHE); assay: Post-emergence herbicidal glasshouse test; settings: 250 g/ha, sprayed after 8 days cultivation, evaluated after 13 days
In short: as §1

[9] = test system: Amaranthus retoflexus (AMARE); assay: Post-emergence herbicidal glasshouse test; settings: 250 g/ha, sprayed after 8 days cultivation, evaluated after 13 days
In short: as §1

[10] = test system: Echinochloa crus-gali (ECHCG); assay: Post-emergence herbicidal glasshouse test; settings: 250 g/ha, sprayed after 8 days cultivation, evaluated after 13 days
In short: as §1

Compound | percentage damage caused to the plant, SETFA [1] | percentage damage caused to the plant, AMAPA [2] | percentage damage caused to the plant, IPOHE [3] | percentage damage caused to the plant, AMARE [4] | percentage damage caused to the plant, ECHCG [5] | percentage damage caused to the plant, SETFA [6] | percentage damage caused to the plant, AMAPA [7] | percentage damage caused to the plant, IPOHE [8] | percentage damage caused to the plant, AMARE [9] | percentage damage caused to the plant, ECHCG [10]
CC(=O)CCc1nc(C(F)(F)F)cn1Cc1ncc(Cl)cn1 [Compound 1.027] | 1 (1=0-20%) | 1 (1=0-20%) | 1 (1=0-20%) | 4 (4=61-80%) | 1 (1=0-20%) | 1 (1=0-20%) | 2 (2=21-40%) | 2 (2=21-40%) | 2 (2=21-40%) | 1 (1=0-20%)
CC(C)(C#N)CCc1nc(C(F)(F)F)cn1Cc1ncc(Cl)cn1 [Compound 1.062] | 4 (4=61-80%) | 5 (5=81-100%) | 5 (5=81-100%) | 5 (5=81-100%) | 4 (4=61-80%) | 2 (2=21-40%) | 2 (2=21-40%) | 3 (3=41-60%) | 2 (2=21-40%) | 1 (1=0-20%)
CC(C)(O)CCc1nc(C(F)(F)F)cn1Cc1ncc(Cl)cn1 [Compound 1.086] | 1 (1=0-20%) | 1 (1=0-20%) | 3 (3=41-60%) | 1 (1=0-20%) | 1 (1=0-20%) | 1 (1=0-20%) | 2 (2=21-40%) | 3 (3=41-60%) | 2 (2=21-40%) | 1 (1=0-20%)

— US20260035359A1, “HERBICIDAL IMIDAZOLE COMPOUNDS” (SYNGENTA CROP PROTECTION AG, priority 2022, published 2026)
